Results taken from US20250073232A1, “COMBINATIONS OF LSD1 INHIBITORS FOR TREATING MYELOID CANCERS” (ORYZON GENOMICS, S.A., priority 2021, published 2025).

Legend:
MV(4; 11) = test: Single agent viability assay (96 hours, alamarBlue); format: cell-based; settings: for EC50: Homo sapiens, MV4-11, 96 hours incubation
Method: (§1) Mycoplasma-free AML cell lines were maintained in RPMI 10% FBS medium at 37° C. in a humidified incubator with controlled 5% CO2 atmosphere. Cell freezing and thawing was performed following recommendation from ATCC. Genetic profiling of the cell lines used is available in Table 1.
(§2) Cells were seeded in 96-well plates at the optimal density to guarantee linear growth throughout the assay (8000 cells/well for MV(4; 11), 4000 cells/well for MOLM-13 and OCI-AML3, 2000 cells/well for TF1a) in 50 μL of medium. Each experimental condition was tested in technical triplicates, including medium-only and vehicle-treated controls for background correction and normalization, respectively. After seeding, 50 μL of medium containing 9 serial dilutions (1:3) of 2×-concentrated compound were added to the cells to obtain 100 μL of cells with 1×-concentrated compound at each dilution. Cells were then incubated for 96 hours at 37° C. in a controlled 5% CO2 atmosphere, prior to evaluation of cell viability using alamarBlue™ cell viability reagent (ThermoFisher Scientific, Waltham, MA/USA). AlamarBlue™ is a cell viability indicator that uses the natural reducing power of living cells to convert resazurin to the fluorescent molecule, resorufin. Briefly, alamarBlue™ stock solution was diluted 1:20 in the culture medium and after 3 hours incubation fluorescence was measured using a TECAN Infinity 2000 plate reader (Tecan Group Ltd., Männedorf, CH; 540-570 nm excitation wavelength, 580-610 nm emission wavelength). For each condition, the average fluorescence was calculated from the 3 technical replicates; background correction was calculated from the fluorescence of medium-only controls. Data were analyzed using the GraphPad PRISM® version 9.0.1 (GraphPad Software, Inc., La Jolla, CA/USA) to calculate the best-fitting curves and the EC50 values.

MOLM-13 = test: as above; format: cell-based; settings: for EC50: Homo sapiens, 96 hours incubation
Method: as §1, §2

TF-1a = test: as above; format: cell-based; settings: for EC50 range in words / reduction of viability (compared to vehicle controls): 96 hours; for EC50: TF-1a
Method: as §1, §2

OCI-AML3 = test: as above; format: cell-based; settings: for EC50: Homo sapiens; for EC50 range in words / reduction of viability (compared to vehicle controls): single agent, 96 hours
Method: as §1, §2

R/R AML = R/R AML patients treated with gilteritinib; cited from earlier work
[1] = single agent, 96 hours incubation
[2] = OCI-AML-3, single agent, 96 hours incubation

EC50 range in words (MOLM-13; 96 hours)	EC50 (MOLM-13)	EC50 (OCI-AML3; [2])	EC50 range in words (OCI-AML3)	EC50 (OCI-AML3; OCI-AML-3, tested following the method described above)	Compound	EC50 range in words (MV(4; 11); 96 hours)	EC50 (MV(4; 11))	reduction of viability (compared to vehicle controls) (MV(4; 11); 96 hours)	EC50 range in words (TF-1a; TF1a, single agent)	reduction of viability (compared to vehicle controls) (TF-1a; TF1a, single agent)	EC50 (TF-1a; [1])	reduction of viability (compared to vehicle controls) (OCI-AML3)	reduction of viability (compared to vehicle controls) (MOLM-13; 96 hours)	R/R AML patients showing complete remission (R/R AML)	relapse-free survival (R/R AML)	EC50 (TF-1a; TF1a, tested following the method described above)
nanomolar range	1.49 nM	–	–	–	COc1ccc(-c2c(-c3ccc(C#N)c(F)c3)nc(N3CCC(N)CC3)n(C)c2=O)cc1F [CC-90011, 4-[2-(4-aminopiperidin-1-yl)-5-(3-fluoro-4-methoxyphenyl)-1-methyl-6-oxo-1,6-dihydropyrimidin-4-yl]-2-fluorobenzonitrile]	nanomolar range	2.3 nM	–	–	–	–	–	–	–	–	–
nanomolar range	2.91 nM	1160 nM	micromolar range	–	CCc1nc(C(N)=O)c(Nc2ccc(N3CCC(N4CCN(C)CC4)CC3)c(OC)c2)nc1NC1CCOCC1 [gilteritinib, 6-ethyl-3-[[3-methoxy-4-[4-(4-methylpiperazinyl)piperidin-1-yl]phenyl]amino]-5-[(tetrahydro-2H-pyran-4-yl)amino]pyrazine-2-carboxamide]	nanomolar range	0.77 nM	~100%	micromolar range	> 70%	1020 nM	> 70%	~100%	21%	around 4 months	–
nanomolar range	6.08 nM	–	–	–	CN1CCN(C(=O)[C@H](CCCN[C@@H]2C[C@H]2c2ccc(F)cc2)NC(=O)c2ccc(-n3ccnn3)cc2)CC1 [bomedemstat, N-[(2S)-5-{[(1R,2S)-2-(4-fluorophenyl)cyclopropyl]amino}-1-(4-methylpiperazin-1-yl)-1-oxopentan-2-yl]-4-(1H-1,2,3-triazol-1-yl) benzamide]	nanomolar range	3.73 nM	–	–	–	–	–	–	–	–	–
–	–	–	–	> 10000 nM	CC1(C)CCC(CN2CCN(c3ccc(C(=O)NS(=O)(=O)c4ccc(NCC5CCOCC5)c([N+](=O)[O-])c4)c(Oc4cnc5[nH]ccc5c4)c3)CC2)=C(c2ccc(Cl)cc2)C1 [venetoclax]	–	–	–	–	–	–	–	–	–	–	> 10000 nM
sub-nanomolar range	0.39 nM	0.38 nM	sub-nanomolar range	–	N[C@H]1CC[C@H](N[C@@H]2C[C@H]2c2ccccc2)CC1 [iadademstat, (trans)-N1-((1R,2S)-2-phenylcyclopropyl)cyclohexane-1,4-diamine]	sub-nanomolar range	0.43 nM	–	sub-nanomolar range	greater than 20%	0.35 nM	greater than 20%	–	–	–	–
